Data: patent US8182842B1, “Physico-chemical-managed killing of penicillin-resistant static and growing gram-positive and gram-negative vegetative bacteria” (The United States of America as represented by the …, priority 2010, dated 2012)
Entries after “also recorded” stand apart in the source; their conditions may differ.

Legend:
[1] = tested on: methicillin-resistant Staphylococcus aureus (MRSA); experiment: kill curve time course of MRSA suspensions (CFU survival); format: cell-based
Method: FIGS. 1 through 17 illustrate kill curve time course experiments of stationary and logarithmic-phase MRSA bacterial suspensions exposed to PBS as well as denaturing SS at pH […] or pH 7.4 in the presence of cloxacillin concentrations spanning from 512 μg/ml to 4096 μg/ml. Experiments were conducted at 22° C. or 35° C. The completion time for the experiments ranged from 20 minutes to 24 hours.
For these experiments, the MRSA strain was grown overnight in Mueller-Hinton broth (MH)+2% NaCl at 35° C., subcultured into fresh media, and grown to mid-logarithmic phase. The cells were centrifuged and resuspended in pH 7.4 MH+2% NaCl to produce an OD600 nm known to indicate logarithmic-phase or stationary-phase of growth. An appropriate volume of cells was added to 1 ml of buffered SS in a 10 ml Falcon tube to yield a final concentration of ca. 1×10^8 colony forming units (CFU)/ml, except for the experiments of FIGS. 1-4 where the final concentration of ca. 1×10^6 CFU/ml applies. Survival was determined for bacteria held for varied exposure times of up to 24 hours in the SS or in PBS at pH 5.6 or pH 7.4, each altered with cloxacillin concentrations ranging in doublings from 512 μg/ml to 4096 μg/ml. Survival was measured from samples held at 22° C. and 35° C. After exposure, samples of 50 μl were then withdrawn and a serial dilution series established. Cells were then plated on MH+2% NaCl agar plates and incubated at 22° C. or 35° C. for CFU formation, after which colonies were counted, surviving fractions recorded, and survival curves constructed. Triplicate experiments were conducted for each exposure condition. The cells were treated under static conditions in all cases and treatments were always made on cells held in salt solutions, never on cells held in growth media. In addition to logarithmic-phase cells, stationary-phase cells removed from growth cycle were also treated.
Killing efficiency is evaluated as therapeutically sufficient according to the 10^−5 level of killing in 5 minutes specified by the British Standard BS EN 1276:1997 Chemical Disinfectants and Antiseptics, which is referred to as the gold standard for efficacy of bactericidal agents. Typically, agents meeting the British Standard are too toxic for human topical application. However, this is not a restriction for effective SS containing cloxacillin used in the illustrated embodiment.

Pseudomonas aeruginosa = experiment: kill curve time course of Pseudomonas aeruginosa suspensions (CFU survival); format: cell-based; conditions: for killing: 20 minutes
Method: FIGS. 18 through 41 illustrate kill curve time-course experiments of stationary-phase and logarithmic-phase Pseudomonas aeruginosa bacterial suspensions exposed to PBS, to SS, to PBS in the presence of cloxacillin concentrations spanning from 512 μg/ml to 4096 μg/ml, or to SS in the presence of cloxacillin concentrations spanning from 512 μg/ml to 4096 μg/ml. Experiments were conducted at 22° C. or 35° C. over the course of 10, 20, or 60 minutes.
Pseudomonas aeruginosa cells were prepared as described above for MRSA with a few exceptions. The Pseudomonas aeruginosa cells were first grown in trypticase soy broth and then frozen in aliquots, which were later rescued into MH broth+2% NaCl for use as in the MRSA experiments. An appropriate volume of cells was added to 1 ml of comparative salt solutions in a 10 ml Falcon tube to yield a final concentration of ca. 1×10^8 colony forming units (CFU)/ml. Survival was determined for bacteria held for varied exposure times of up to 60 minutes in PBS, in SS, in PBS altered with cloxacillin concentrations ranging in doublings from 512 μg/ml to 4096 μg/ml, or in SS containing cloxacillin concentrations ranging in doublings from 512 μg/ml to 4096 μg/ml. The salt solutions were compared at a pH of 5.6 or 7.4. Survival was measured from samples held at 22° C. or 35° C. After exposure, samples of 50 μl were then withdrawn and a serial dilution series established. Cells were then plated on MH+2% NaCl agar plates and incubated at 22° C. or 35° C. for CFU formation, after which colonies were counted, surviving fractions recorded, and survival curves constructed. Triplicate experiments were conducted for each exposure condition. The cells were treated under static conditions in all cases and treatments were always made on cells held in salt solutions, never on cells held in growth media. In addition to logarithmic-phase cells, stationary-phase cells removed from growth cycle were also treated.

With `Cc1onc(-c2ccccc2Cl)c1C(=O)N[C@@H]1C(=O)N2[C@@H]1SC(C)(C)[C@@H]2C(=O)O` [cloxacillin] the killing effect ([1]; FIG. 1, pH 5.5 PBS, 1024 μg/ml cloxacillin, 22° C., logarithmic-phase MRSA, 20 minute) was “non-substantial killing effect; also recorded: not effective”, the killing effect ([1]; FIG. 2, pH 7.4 PBS, 512 μg/ml cloxacillin, 22° C., logarithmic-phase MRSA, 20 minute) was “non-substantial killing effect; also recorded: not effective” and the killing effect ([1]; FIG. 3, pH 5.5 SS, 1024 μg/ml cloxacillin, 22° C., logarithmic-phase MRSA, 20 minute) was “not effective; also recorded: non-substantial killing effect”. The killing effect ([1]; FIG. 4, pH 7.4 SS, 512 μg/ml cloxacillin, 22° C., logarithmic-phase MRSA, 60 minute) was “substantial killing; also recorded: killing effect”, the surviving fraction ([1]; FIG. 4, pH 7.4 SS, 512 μg/ml cloxacillin, 22° C., logarithmic-phase MRSA, all time points, no survivors on treated plates) was < 2×10^−4 and the killing effect ([1]; FIG. 5, pH 7.4 SS, 512 μg/ml cloxacillin, 22° C., stationary-phase MRSA, 60 minute) was “killing effect”. The killing effect ([1]; FIG. 6, pH 7.4 SS, 1024 μg/ml cloxacillin, 22° C., stationary-phase MRSA, 60 minute) was “killing effect”, the killing effect ([1]; FIG. 7, pH 7.4 SS, 2048 μg/ml cloxacillin, 22° C., stationary-phase MRSA, 60 minute) was “killing effect” and the killing effect ([1]; FIG. 8, pH 7.4 SS, 4096 μg/ml cloxacillin, 22° C., stationary-phase MRSA, 60 minute) was “killing effect”. The “time in which the 10^−5 level of killing is achieved” value ([1]; FIG. 9, pH 7.4 SS, 4096 μg/ml cloxacillin, 22° C., stationary-phase MRSA) was 3 hours, the killing effect ([1]; FIG. 9, pH 7.4 SS, 4096 μg/ml cloxacillin, 22° C., stationary-phase MRSA, 24 hour) was “killing effect” and the killing effect ([1]; FIG. 10, pH 7.4 SS, 512 μg/ml cloxacillin, 35° C., logarithmic-phase MRSA, 20 minute) was “killing effect”. The killing effect ([1]; FIG. 11, pH 7.4 SS, 1024 μg/ml cloxacillin, 35° C., logarithmic-phase MRSA, 20 minute) was “killing effect”, the killing effect ([1]; FIG. 12, pH 7.4 SS, 2048 μg/ml cloxacillin, 35° C., logarithmic-phase MRSA, 20 minute) was “killing effect” and the killing effect ([1]; FIG. 13, pH 7.4 SS, 4096 μg/ml cloxacillin, 35° C., logarithmic-phase MRSA, 20 minute) was “killing effect”. For the same molecule, the killing effect ([1]; FIG. 14, pH 7.4 SS, 512 μg/ml cloxacillin, 35° C., stationary-phase MRSA, 60 minute) was “killing effect”, the killing effect ([1]; FIG. 15, pH 7.4 SS, 1024 μg/ml cloxacillin, 35° C., stationary-phase MRSA, 60 minute) was “killing effect” and the killing effect ([1]; FIG. 16, pH 7.4 SS, 2048 μg/ml cloxacillin, 35° C., stationary-phase MRSA, 60 minute) was “killing effect”. The killing effect ([1]; FIG. 17, pH 7.4 SS, 4096 μg/ml cloxacillin, 35° C., stationary-phase MRSA, 60 minute) was “killing effect”, the “efficiency of killing versus British Standard BS EN 1276:1997 (10^−5 level of killing in 5 minutes)” value ([1]; FIGS. 5-9, pH 7.4 SS, 512 to 4096 μg/ml cloxacillin, 22° C., stationary-phase MRSA) was “does not provide the 10^−5 level of killing in 5 minutes” and the “killing compared with 22° C.” value ([1]; FIGS. 10-13, pH 7.4 SS, 512 to 4096 μg/ml cloxacillin, 35° C., logarithmic-phase MRSA) was “killing is enhanced”. The “killing compared with 22° C.” value ([1]; FIGS. 14-17, pH 7.4 SS, 512 to 4096 μg/ml cloxacillin, 35° C., stationary-phase MRSA) was “enhanced killing”, the “efficiency of killing versus British Standard BS EN 1276:1997 (10^−5 level of killing in 5 minutes)” value ([1]; pH 7.4 SS with cloxacillin, 35° C., logarithmic-phase MRSA) was “approaches or exceeds the 10^−5 level of killing in 5 minutes” and the “efficiency of killing versus British Standard BS EN 1276:1997 (10^−5 level of killing in 5 minutes)” value ([1]; pH 7.4 SS with cloxacillin, 35° C., stationary-phase MRSA) was “approaches or exceeds the 10^−5 level of killing in 5 minutes”. For the same molecule, the killing effect (Pseudomonas aeruginosa; FIG. 22, pH 7.4 PBS, 512 μg/ml cloxacillin, 22° C., logarithmic-phase, 20 minute) was “non-substantial killing effect”, the killing effect (Pseudomonas aeruginosa; FIG. 23, pH 7.4 PBS, 1024 μg/ml cloxacillin, 22° C., logarithmic-phase, 20 minute) was “non-substantial killing effect” and the killing effect (Pseudomonas aeruginosa; FIG. 24, pH 7.4 PBS, 2048 μg/ml cloxacillin, 22° C., logarithmic-phase, 20 minute) was “non-substantial killing effect”. The killing effect (Pseudomonas aeruginosa; FIG. 25, pH 7.4 PBS, 4096 μg/ml cloxacillin, 22° C., logarithmic-phase, 20 minute) was “non-substantial killing effect”, the killing effect (Pseudomonas aeruginosa; FIG. 26, pH 7.4 SS, 512 μg/ml cloxacillin, 22° C., logarithmic-phase, 20 minute) was “killing effect” and the killing effect (Pseudomonas aeruginosa; FIG. 27, pH 7.4 SS, 1024 μg/ml cloxacillin, 22° C., logarithmic-phase, 20 minute) was “killing effect”. For the same molecule, the killing effect (Pseudomonas aeruginosa; FIG. 28, pH 7.4 SS, 2048 μg/ml cloxacillin, 22° C., logarithmic-phase, 10 minute) was “killing effect”, the killing effect (Pseudomonas aeruginosa; FIG. 29, pH 7.4 SS, 4096 μg/ml cloxacillin, 22° C., logarithmic-phase, 10 minute) was “killing effect” and the killing effect (Pseudomonas aeruginosa; FIG. 30, pH 7.4 PBS, 512 μg/ml cloxacillin, 35° C., logarithmic-phase, 20 minute) was “non-substantial killing effect”. The killing effect (Pseudomonas aeruginosa; FIG. 31, pH 7.4 PBS, 1024 μg/ml cloxacillin, 35° C., logarithmic-phase, 20 minute) was “non-substantial killing effect”, the killing effect (Pseudomonas aeruginosa; FIG. 32, pH 7.4 PBS, 2048 μg/ml cloxacillin, 35° C., logarithmic-phase, 20 minute) was “non-substantial killing effect” and the killing effect (Pseudomonas aeruginosa; FIG. 33, pH 7.4 PBS, 4096 μg/ml cloxacillin, 35° C., logarithmic-phase, 20 minute) was “non-substantial killing effect”. The killing effect (Pseudomonas aeruginosa; FIG. 34, pH 7.4 SS, 512 μg/ml cloxacillin, 35° C., logarithmic-phase, 20 minute) was “killing effect”, the killing effect (Pseudomonas aeruginosa; FIG. 35, pH 7.4 SS, 1024 μg/ml cloxacillin, 35° C., logarithmic-phase, 20 minute) was “killing effect” and the killing effect (Pseudomonas aeruginosa; FIG. 36, pH 7.4 SS, 2048 μg/ml cloxacillin, 35° C., logarithmic-phase, 20 minute) was “killing effect”. For the same molecule, the killing effect (Pseudomonas aeruginosa; FIG. 37, pH 7.4 SS, 4096 μg/ml cloxacillin, 35° C., logarithmic-phase, 20 minute) was “killing effect”, the killing effect (Pseudomonas aeruginosa; FIG. 38, pH 7.4 SS, 512 μg/ml cloxacillin, 22° C., stationary-phase, 20 minute) was “killing effect” and the killing effect (Pseudomonas aeruginosa; FIG. 39, pH 7.4 SS, 1024 μg/ml cloxacillin, 22° C., stationary-phase, 20 minute) was “killing effect”. The killing effect (Pseudomonas aeruginosa; FIG. 40, pH 7.4 SS, 2048 μg/ml cloxacillin, 22° C., stationary-phase, 20 minute) was “killing effect”, the killing effect (Pseudomonas aeruginosa; FIG. 41, pH 7.4 SS, 4096 μg/ml cloxacillin, 22° C., stationary-phase, 20 minute) was “killing effect” and the killing (Pseudomonas aeruginosa; FIGS. 22-25, PBS pH 7.4, 512 to 4096 μg/ml cloxacillin, 22° C., logarithmic-phase) was “non-substantial killing”. The efficiency of killing (Pseudomonas aeruginosa; FIGS. 26-29, SS pH 7.4, all concentrations 512 to 4096 μg/ml cloxacillin, 22° C., logarithmic-phase, 10 or 20 minutes) was “substantially efficient in killing”, the killing (Pseudomonas aeruginosa; FIGS. 30-33, PBS pH 7.4, 512 to 4096 μg/ml cloxacillin, 35° C., logarithmic-phase) was “non-substantial killing” and the killing (Pseudomonas aeruginosa; FIGS. 34-37, SS pH 7.4, 512 to 4096 μg/ml cloxacillin, 35° C., logarithmic-phase) was “substantial killing”. For the same molecule, the killing (Pseudomonas aeruginosa; FIGS. 38-41, SS pH 7.4, 512 to 4096 μg/ml cloxacillin, 22° C., stationary-phase) was “substantial killing”.
